Where a name gives a salt, the structure may show the parent alone.
Tests used:
[1] = system: Z138 mantle cell lymphoma tumour cell lines; assay: In vitro cytotoxicity, MTT assay; assay type: cell-based; conditions: Z138 cells exposed to the test compounds for 96 hours, cell viability vs DMSO treated cells
Method: The cytotoxicity studies were evaluated by MTT [3-(4,5-dimethylthiazol-2-yl)-2,5-diphenyltetrazolium bromide] assay and carried out on Z138 mantle cell lymphoma tumour cell lines. The cells are distributed onto microplates and exposed to the test compounds for 96 hours. MTT is then added for 4 hours and converted by NAD(P)H-dependent cellular oxidoreductase enzymes in formazan, which has a purple color. The viable cell number is proportional to the production of formuan salts and cell viability can be quantified by the absorbance of the solution at 540 nm with a speetrophotometer (Carmichael et al., Cancer Res. 1987, 47, 936-942).

[2] = molecular target: T1, His-His-USP7 (aa208-560, |C315A|) (Homo sapiens, UniProt Q93009, C315A); assay: Evaluation of the inhibition of USP7 by the Fluorescence Intensity (FLINT) readings; assay type: biochemical; conditions: 0.25 nM His-His-USP7, compound incubated 60 minutes at 30° C., 500 nM Ubiquitin-Rhodamine-110 substrate; 50% reduction in kinetic rate
T1 construct: His-His-USP7 (aa208-560, |C315A|); His-His (N)
In short: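 IC50 reflects 50% reduction in kinetic rate of rhodamine-110 release (Ex485/Em535, reads every 3 min over 21 min), normalised to DMSO and no-enzyme controls, from an 11-point 4-parameter fit. Substrate is 500 nM Ub-Rh110, added after 60 min, 30 °C preincubation of compound with 0.25 nM USP7 aa208–560 C315A. Buffer is Bicine pH 8.0 with 10% DMSO.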

T1 sequence (Q93009 208-560 C315A): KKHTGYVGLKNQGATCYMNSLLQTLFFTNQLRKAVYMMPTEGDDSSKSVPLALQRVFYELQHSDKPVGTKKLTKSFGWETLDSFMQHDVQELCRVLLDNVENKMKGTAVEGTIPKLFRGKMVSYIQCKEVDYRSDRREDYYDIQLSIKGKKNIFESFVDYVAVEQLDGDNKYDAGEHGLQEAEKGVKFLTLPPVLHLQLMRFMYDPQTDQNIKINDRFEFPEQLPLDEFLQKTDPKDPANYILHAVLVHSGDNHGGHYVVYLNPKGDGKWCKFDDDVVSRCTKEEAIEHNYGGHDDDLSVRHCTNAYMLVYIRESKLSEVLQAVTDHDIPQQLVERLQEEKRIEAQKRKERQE

Structure (SMILES)	IC50 [2]	IC50 ([1]; Homo sapiens, Z-138, 96 h)	IC50 [1]	IC50 ([1]; Homo sapiens, Z-138)
Nc1c(Oc2ccccc2)ncn(CC2(O)CCN(C(=O)[C@@H]3CCC(F)(F)C[C@H]3c3ccccc3)CC2)c1=O [Example 1, 5-amino-3-({1-[(1R,2R)-4,4-difluoro-2-phenylcyclohexane-1-carbonyl]-4-hydroxypiperidin-4-yl}methyl)-6-phenoxypyrimidin-4(3H)-one]	43.7 nM	0.0866 µM	–	–
COc1ccc(Oc2ncn(CC3(O)CCN(C(=O)[C@@H]4CCC(F)(F)C[C@H]4c4ccccc4)CC3)c(=O)c2N)cc1 [Example 3, 5-amino-3-({1-[(1R,2R)-4,4-difluoro-2-phenylcyclohexane-1-carbonyl]-4-hydroxypiperidin-4-yl}methyl)-6-(4-methoxyphenoxy)pyrimidin-4(3H)-one]	80.2 nM	0.0595 µM	–	–
Nc1c(Oc2ccc(F)cc2)ncn(CC2(O)CCN(C(=O)[C@@H]3CCC(F)(F)C[C@H]3c3ccccc3)CC2)c1=O [Example 5, 5-amino-3-({1-[(1R,2R)-4,4-difluoro-2-phenylcyclohexane-1-carbonyl]-4-hydroxypiperidin-4-yl}methyl)-6-(4-fluorophenoxy)pyrimidin-4(3H)-one]	63.4 nM	0.0435 µM	–	–
CNc1c(Oc2ccccc2)ncn(CC2(O)CCN(C(=O)[C@@H]3CCC(F)(F)C[C@H]3c3ccccc3)CC2)c1=O [Example 9, 3-({1-[(1R4R)-4,4-difluoro-2-phenylcyclohexane-1-carbonyl]-4-hydroxypiperidin-4-yl}methyl)-5-(methylamino)-6-phenoxypyrimidin-4(3H)-one]	85.8 nM	0.287 µM	–	–
Nc1c(Oc2ccc(Cl)cc2)ncn(CC2(O)CCN(C(=O)[C@@H]3CCC(F)(F)C[C@H]3c3ccccc3)CC2)c1=O [Example 11, 5-amino-6-(4-chlorophenoxy)-3-({1-[(1R,2R)-4,4-difluoro-2-phenylcyclohexane-1-carbonyl]-4-hydroxypiperidin-4-yl}methyl)pyrimidin-4(3H)-one]	58.7 nM	0.197 µM	–	–
COc1cc(Oc2ncn(CC3(O)CCN(C(=O)[C@@H]4CCC(F)(F)C[C@H]4c4ccccc4)CC3)c(=O)c2N)ccc1Cl [Example 12, 5-amino-6-(4-chloro-3-methoxy-phenoxy)-3-({1-[(1R,2R)-4,4-difluoro-2-phenylcyclohexane-1-carbonyl]-4-hydroxypiperidin-4-yl}methyl)pyrimidin-4(3H)-one]	57.1 nM	–	–	0.0909 µM
Nc1c(Oc2ccc3c(c2)OCO3)ncn(CC2(O)CCN(C(=O)[C@@H]3CCC(F)(F)C[C@H]3c3ccccc3)CC2)c1=O [Example 14]	71.8 nM	0.0413 µM	–	–
COc1cc(O)cc(Oc2ncn(CC3(O)CCN(C(=O)[C@@H]4CCC(F)(F)C[C@H]4c4ccccc4)CC3)c(=O)c2N)c1 [Example 15, 5-amino-3-({1-[(1R,2R)-4,4-difluoro-2-phenylcyclohexane-1-carbonyl]-4-hydroxypiperidin-4-yl}methyl)-6-(3-hydroxy-5-methoxyphenoxy)pyrimidin-4(3H)-one]	23.5 nM	0.0195 µM	–	–
COc1cc(Oc2ncn(CC3(O)CCN(C(=O)[C@@H]4CCC(F)(F)C[C@H]4c4ccccc4)CC3)c(=O)c2N)ccc1F [Example 16, 5-amino-3-({1-[(1R,2R)-4,4-difluoro-2-phenylcyclohexane-1-carbonyl]-4-hydroxypiperidin-4-yl}methyl)-6-(4-fluoro-3-methoxyphenoxy)pyrimidin-4(3H)-one]	51.6 nM	0.0424 µM	–	–

More lines, main results first:

IC50 [2]	Structure (SMILES)	IC50 ([1]; Homo sapiens, Z-138, 96 h)	IC50 [1]	IC50 ([1]; Homo sapiens, Z-138)
109 nM	Nc1c(Oc2ccc(F)cc2)ncn(CC2(O)CCN(C(=O)[C@@H]3CC[C@](O)(Cc4ccccn4)C[C@H]3c3ccccc3)CC2)c1=O (relative stereo) [Example 96, rel-5-amino-6-(4-fluorophenoxy)-3-({4-hydroxy-1-[(1R,2R,4R)-4-hydroxy-2-phenyl-4-](pyridin-2-yl)methyl]cyclohexanecarbonyl]piperidin-4-yl}methyl)-3,4-dihydropyrimidin-4-one]	0.116 µM	–	–
38.2 nM	Nc1c(Oc2ccc(F)cc2)ncn(CC2(O)CCN(C(=O)[C@@H]3CC[C@@](O)(Cc4ccccn4)C[C@H]3c3ccccc3)CC2)c1=O (relative stereo) [Example 97, rel-5-amino-6-(4-fluorophenoxy)-3-[(4-hydroxy-1-{[(1R,2R,4S)-4-hydroxy-2-phenyl-4-(pyridin-2-ylmethyl)cyclohexyl]carbonyl}piperidin-4-yl)methyl]pyrimidin-4-one]	0.497 µM	–	–
89.6 nM	Nc1c(Oc2ccc(F)cc2)ncn(CC2(O)CCN(C(=O)[C@@H]3CCC(F)(C#CC4CC4)C[C@H]3c3ccccc3)CC2)c1=O (relative stereo) [Example 124, rel-5-amino-3-[(1 -{[(1R,2 R)-4-(2-cyclopropylethynyl)-4-fluoro-2-phenylcyclohexyl]carbonyl}-4-hydroxypiperidin-4-yl)methyl]-6-(4-fluorophenoxy)pyrimidin-1-one]	0.236 µM	–	–
89.5 nM	CC#CC1(F)CC[C@@H](C(=O)N2CCC(O)(Cn3cnc(Oc4ccc(F)cc4)c(N)c3=O)CC2)[C@H](c2ccccc2)C1 (relative stereo) [Example 125, rel-5-amino-3-[(1-{[(1R,2R)-4-fluoro-2-phenyl-4-(prop-1-yn-1-yl)cyclohexyl]carbonyl}-4-hydroxypiperidin-4-yl)methyl]-6-(4-fluorophenoxy)pyrimidin-4-one]	0.0603 µM	–	–
79.5 nM	Nc1c(Oc2ccc(F)cc2)ncn(CC2(O)CCN(C(=O)[C@@H]3CC[C@@](F)(Cc4ccccn4)C[C@H]3c3ccccc3)CC2)c1=O (relative stereo) [Example 126, rel-5-amino-3-[(1-{[(1R,2R,4S)-4-fluoro-2-phenyl-4-(pyridin-2-ylmethyl)cyclohexyl]carbonyl)}-4-hydroxypiperidin-4-yl)methyl]-6-(4-fluorophenoxy)pyrimidin-4-one]	0.17 µM	–	–
7.4 nM	CC(N)c1ccc(Oc2ncn(CC3(O)CCN(C(=O)[C@@H]4CCC(F)(F)C[C@H]4c4ccccc4)CC3)c(=O)c2N)cc1 (single isomer, unassigned; diastereoisomer 1) [Example 54]	0.273 µM	–	–
8.69 nM	CC(N)c1ccc(Oc2ncn(CC3(O)CCN(C(=O)[C@@H]4CCC(F)(F)C[C@H]4c4ccccc4)CC3)c(=O)c2N)cc1 (single isomer, unassigned; diastereoisomer 2) [Example 55]	–	0.264 µM	–
83.1 nM	Cc1cccc(Oc2ncn(CC3(O)CCN(C(=O)[C@@H]4CCC(F)(F)C[C@H]4c4ccccc4)CC3)c(=O)c2N)c1 [Example 19, 5-amino-3-({1-[(1R,2R)-4,4-difluoro-2-phenylcyclohexane-1-carbonyl]-4-hydroxypiperidin-4-yl}methyl)-6-(3-methylphenoxy)pyrimidin-4(3H)-one]	0.0716 µM	–	–
105 nM	Nc1c(Oc2cccc(Br)c2)ncn(CC2(O)CCN(C(=O)[C@@H]3CCC(F)(F)C[C@H]3c3ccccc3)CC2)c1=O [Example 20, 5-amino-6-(3-bromophenoxy)-3-([1-{(1R,2R)-4,4-difluoro-2-phenylcyclohexane-1-carbonyl]-4-hydroxypiperidin-4-yl}methyl)pyrimidin-4(3H)-one]	0.146 µM	–	–
40 nM	Nc1c(Oc2ccc(CO)cc2)ncn(CC2(O)CCN(C(=O)[C@@H]3CCC(F)(F)C[C@H]3c3ccccc3)CC2)c1=O [Example 23, 5-amino-3-({1-[(1R,2R)-4,4-difluoro-2-phenylcyclohexane-1-carbonyl]-4-hydroxypiperidin-4-yl}methyl)-6-[4-(hydroymethyl)phenoxy]pyrimidin-4(3H)-one]	0.22 µM	–	–
30 nM	N#Cc1ccc(Oc2ncn(CC3(O)CCN(C(=O)[C@@H]4CCC(F)(F)C[C@H]4c4ccccc4)CC3)c(=O)c2N)cc1 [Example 24, 4-{[5-amino-1-({1-[(1R,2R)-4,4-difluoro-2-phenylcyclohexane-1-carbonyl]-4-hydroxypiperidin-4-yl}methyl)-6-oxo-1,6-dihydropyrimidin-4-yl]oxy}benzonitrile]	0.165 µM	–	–
20 nM	Nc1c(Oc2ccc3c(c2)CNCC3)ncn(CC2(O)CCN(C(=O)[C@@H]3CCC(F)(F)C[C@H]3c3ccccc3)CC2)c1=O [Example 26, 5-amino-3-({1-[(1R,2R)-4,4-difluoro-2-phenylcyclohexane-1-carbonyl]-4-hydroxypiperidin-4-yl}methyl)-6-[(1,2,3,4-tetrahydroisoquinolin-7-yl)oxy]pyrimidin-4(3H)-one, hydrochloride]	0.406 µM	–	–
53 nM	Nc1c(Oc2cccc(CO)c2)ncn(CC2(O)CCN(C(=O)[C@@H]3CCC(F)(F)C[C@H]3c3ccccc3)CC2)c1=O [Example 28, 5-amino-3-({1-[(1R,2R)-4,4-difluoro-2-phenylcyclohexane-1-carbonyl]-4-hydroxypiperidin-4-yl}methyl)-6-[3-(hydroxymethyl)phenoxy]pyrimidin-4(3H)-one]	0.052 µM	–	–

— US20210221785A1, “AMINO-PYRIMIDONYL DERIVATIVES, A PROCESS FOR THEIR PREPARATION AND PHARMACEUTICAL COMPOSITIONS CONTAINING THEM” (LES LABORATOIRES SERVIER, priority 2018, published 2021)
